Assay [1] addresses T1, Glucocorticoid receptor (Homo sapiens, UniProt P04150).
T1 sequence (P04150 whole entry): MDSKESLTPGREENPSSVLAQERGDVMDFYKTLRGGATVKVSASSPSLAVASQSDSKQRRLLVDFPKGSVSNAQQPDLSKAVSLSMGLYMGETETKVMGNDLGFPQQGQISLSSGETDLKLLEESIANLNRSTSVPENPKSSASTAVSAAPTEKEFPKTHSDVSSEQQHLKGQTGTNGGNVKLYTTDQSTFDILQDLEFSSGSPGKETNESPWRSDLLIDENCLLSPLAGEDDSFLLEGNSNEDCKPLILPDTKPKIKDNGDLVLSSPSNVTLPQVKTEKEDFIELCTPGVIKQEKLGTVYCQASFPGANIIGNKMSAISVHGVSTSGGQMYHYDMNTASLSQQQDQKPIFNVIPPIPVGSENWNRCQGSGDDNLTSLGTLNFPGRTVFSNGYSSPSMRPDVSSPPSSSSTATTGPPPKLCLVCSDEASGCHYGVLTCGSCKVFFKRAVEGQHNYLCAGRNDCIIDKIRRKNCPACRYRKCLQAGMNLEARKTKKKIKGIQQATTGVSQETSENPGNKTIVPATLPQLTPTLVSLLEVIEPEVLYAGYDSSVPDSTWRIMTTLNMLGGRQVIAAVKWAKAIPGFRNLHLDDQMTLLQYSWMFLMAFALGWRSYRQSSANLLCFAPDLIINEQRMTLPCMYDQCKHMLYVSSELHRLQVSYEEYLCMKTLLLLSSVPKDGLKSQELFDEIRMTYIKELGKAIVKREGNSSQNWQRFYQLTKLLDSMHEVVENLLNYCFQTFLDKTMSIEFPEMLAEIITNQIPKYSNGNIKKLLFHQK
The experiment in a line: Displacement of [3H]dexamethasone from GR in human IM9 cells after 6 hrs by scintillation counting method. The assay is classed as cell-based. For orientation: Displacement assays read how much labelled ligand stays bound in the presence of the test substance.

Assay [2] deals with A549. The assay is described as follows: Antiinflammatory activity in human A549 cells assessed as inhibition of IL1beta-induced IL6 production preincubated for 30 mins followed by IL1beta-stimulation and measured after 20 hrs by AlphaLisa assay. The assay is classed as functional, cell-based.
In assay [3] the target is T2, Glucocorticoid receptor (Homo sapiens) (UniProt P04150).
T2 sequence (whole entry): T1 sequence (P04150 whole entry)
The assay is described as follows: Potency index, ratio of prednisolone IC50 to test compound IC50 for displacement of [3H]dexamethasone from GR in human IM9 cells. The assay is classed as cell-based.

The test system of assay [4] is A549. The assay is described as follows: Potency index, ratio of prednisolone IC50 to test compound IC50 for inhibition of IL1beta-induced IL6 production in human A549 cells. In kind it is functional.
For assay [5], the system named is Blood. The assay is described as follows: Antiinflammatory activity in Sprague-Dawley rat whole blood assessed as inhibition of LPS-induced TNFalpha production measured after 18 hrs by AlphaLisa assay. The assay is classed as functional, tissue-based. A general note: Alpha assays give light when donor and acceptor beads are brought close together.
Assay [6] has as its target T3, Progesterone receptor (Homo sapiens, UniProt P06401).
T3 sequence (P06401 whole entry): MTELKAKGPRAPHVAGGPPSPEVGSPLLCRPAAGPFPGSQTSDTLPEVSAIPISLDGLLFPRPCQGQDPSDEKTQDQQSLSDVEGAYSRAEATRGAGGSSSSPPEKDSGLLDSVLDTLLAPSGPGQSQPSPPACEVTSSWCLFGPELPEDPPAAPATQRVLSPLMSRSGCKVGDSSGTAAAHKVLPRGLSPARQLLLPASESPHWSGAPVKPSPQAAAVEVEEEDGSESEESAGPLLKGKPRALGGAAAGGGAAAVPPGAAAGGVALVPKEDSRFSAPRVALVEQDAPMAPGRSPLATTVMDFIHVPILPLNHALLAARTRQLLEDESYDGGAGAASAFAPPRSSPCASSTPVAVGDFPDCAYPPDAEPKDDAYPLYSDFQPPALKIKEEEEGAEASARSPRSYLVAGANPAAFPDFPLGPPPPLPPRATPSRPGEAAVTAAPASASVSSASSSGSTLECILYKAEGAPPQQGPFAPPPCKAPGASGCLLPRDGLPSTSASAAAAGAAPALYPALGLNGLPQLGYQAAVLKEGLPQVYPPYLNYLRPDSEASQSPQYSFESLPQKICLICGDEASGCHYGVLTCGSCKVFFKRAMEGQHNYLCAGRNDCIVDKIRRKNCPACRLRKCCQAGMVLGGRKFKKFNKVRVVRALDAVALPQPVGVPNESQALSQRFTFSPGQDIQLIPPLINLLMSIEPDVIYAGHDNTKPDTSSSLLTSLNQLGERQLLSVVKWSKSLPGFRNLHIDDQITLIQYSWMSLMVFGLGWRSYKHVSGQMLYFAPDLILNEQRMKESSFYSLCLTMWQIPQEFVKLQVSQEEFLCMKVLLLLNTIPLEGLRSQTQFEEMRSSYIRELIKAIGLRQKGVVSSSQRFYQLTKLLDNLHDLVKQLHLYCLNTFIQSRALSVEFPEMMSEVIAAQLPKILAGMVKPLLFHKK
The experiment in a line: Displacement of [3H]progesterone from progesterone receptor in human T47D cells after 20 hrs by scintillation counting method. In kind it is cell-based.

What is called IC50 is the concentration that inhibits the measured activity by half. Turning to `O[C@@]1(c2ccccc2)CCC[C@]12C=Cc1c(cnn1-c1ccc(F)cc1)C2`, in assay [1], the IC50 was above 1000 nM.

`O[C@H]1C(Cc2ccccc2)(Cc2ccccc2)CCC[C@]12C=Cc1c(cnn1-c1ccc(F)cc1)C2` registered an IC50 in assay [1] above 1000 nM.

Take `O[C@]1(c2ccccc2)CCCC[C@@]12C=Cc1c(cnn1-c1ccc(F)cc1)C2`: in assay [1], the IC50 was found to be 1010 nM.

As to `C#CC[C@H]1CCC[C@]2(C=Cc3c(cnn3-c3ccc(F)cc3)C2)[C@H]1O`, the IC50 in assay [1] is above 1000 nM.

Regarding `COc1ccc(C2=CCCC[C@]23C=Cc2c(cnn2-c2ccc(F)cc2)C3)cc1`, in assay [1], the IC50 worked out at 135 nM.

Take `O[C@@]1(c2ccccc2)CCCC[C@@]12C=Cc1c(cnn1-c1ccc(F)cc1)C2`: the IC50 in assay [2] was determined as 0.5 nM; in assay [5] it was 4 nM; in assay [1] it was 0.41 nM; in assay [6] it was 780 nM. The Ratio IC50 in assay [3] turned out to be 30; in assay [4], 10.

Consider `O[C@@]1(c2ccccc2)CCCCC[C@@]12C=Cc1c(cnn1-c1ccc(F)cc1)C2`, for which the results for the IC50 in assay [1] and in assay [6] were 6 nM and above 1000 nM, respectively.

For the compound `O[C@]1(c2ccccc2)CCCCC[C@@]12C=Cc1c(cnn1-c1ccc(F)cc1)C2`, the half-maximal inhibitory concentration (IC50) in assay [1] was determined as 9.5 nM.

In turn, `O[C@H]1[C@@H](Cc2ccccc2)CCC[C@]12C=Cc1c(cnn1-c1ccc(F)cc1)C2` registered an IC50 in assay [1] above 1000 nM.

For the compound `Fc1ccc(-n2ncc3c2C=C[C@]2(CCCC=C2c2ccccc2)C3)cc1`, the half-maximal inhibitory concentration (IC50) is 20 nM in assay [1] and above 1000 nM in assay [6].

`O[C@@]1(Cc2ccccc2)CCCCC[C@@]12C=Cc1c(cnn1-c1ccc(F)cc1)C2` returned an IC50 in assay [1] of 89 nM.

As for `C[C@]12C=CC(=O)C=C1CC[C@@H]1[C@@H]2[C@@H](O)C[C@@]2(C)[C@H]1CC[C@]2(O)C(=O)CO` [PREDNISOLONE], the figures for the IC50 in assay [2] and in assay [5] were 5.8 nM and 4.6 nM, respectively.

Regarding `O[C@]1(Cc2ccccc2)CCCCC[C@@]12C=Cc1c(cnn1-c1ccc(F)cc1)C2`, the IC50 in assay [1] is 130 nM.

In turn, `Oc1ccc(C2=CCCC[C@]23C=Cc2c(cnn2-c2ccc(F)cc2)C3)cc1` came in with an IC50 in assay [1] of 10 nM.
